{"source": "patent US20140343000A1", "about": "(priority 2011, published 2014)", "note": "Structures can show the parent of a compound that is named as a salt.", "data": [{"tested_on": "recombinant NL4-3 virus (Renilla luciferase in nef, Gag P373S; NLRluc) in MT-2 cells", "assay": "whole plant or invertebrate", "type": "cell-based, HIV", "conditions": "Renilla, NL43, luciferase activity in cells infected for 4-5 days with NLRluc recombinants, serial dilutions of inhibitor; class symbols (key in Table 1); read-out: EC50", "summary_of_the_method": "(§1)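 Virus from 293T transfection, titered in MT-2 by luciferase. MT-2 (RPMI, 10% HI-FBS) infected ± inhibitor serial dilutions, 4-5 d. Readout: Dual Luciferase premix (lysis:reagent:Stop & Glo 2:1:1), immediate luminescence.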", "units": {"EC50": "µM"}, "values": [{"molecule": "C=C(C)[C@@H]1CC[C@]2(Nc3nc(CC)cs3)CC[C@]3(C)[C@H](CC[C@@H]4[C@@]5(C)CC=C(c6ccc(C(=O)O)cc6)C(C)(C)[C@@H]5CC[C@]43C)[C@@H]12", "note": "[Example 184B, 4-((1R,3aS,5aR,5bR,7aR,11aS,11bR,13aR,13bR)-3a-(4-ethylthiazol-2-ylamino)-5a,5b,8,8,11a-pentamethyl-1-(prop-1-en-2-yl)-2,3,3a,4,5,5a,5b,6,7,7a,8,11,11a,11b,12,13,13a,13b-octadecahydro-1H-cyclopenta[a]chrysen-9-yl)benzoic acid]", "EC50": "< 0.1"}, {"molecule": "C=C(C)[C@@H]1CC[C@]2(Nc3nc(C(C)(C)C)cs3)CC[C@]3(C)[C@H](CC[C@@H]4[C@@]5(C)CC=C(c6ccc(C(=O)O)cc6)C(C)(C)[C@@H]5CC[C@]43C)[C@@H]12", "note": "[Example 185, 4-((1R,3aS,5aR,5bR,7aR,11aS,11bR,13aR,13bR)-3a-(4-tert-butylthiazol-2-ylamino)-5a,5b,8,8,11a-pentamethyl-1-(prop-1-en-2-yl)-2,3,3a,4,5,5a,5b,6,7,7a,8,11,11a,11b,12,13,13a,13b-octadecahydro-1H-cyclopenta[a]chrysen-9-yl)benzoic acid]", "EC50": "> 0.1"}, {"molecule": "C=C(C)[C@@H]1CC[C@]2(Nc3nc(-c4ccccn4)cs3)CC[C@]3(C)[C@H](CC[C@@H]4[C@@]5(C)CC=C(c6ccc(C(=O)O)cc6)C(C)(C)[C@@H]5CC[C@]43C)[C@@H]12", "note": "[Example 187, 4-((1R,3aS,5aR,5bR,7aR,11aS,11bR,13aR,13bR)-5a,5b,8,8,11a-pentamethyl-1-(prop-1-en-2-yl)-3a-(4-(pyridin-2-yl)thiazol-2-ylamino)-2,3,3a,4,5,5a,5b,6,7,7a,8,11,11a,11b,12,13,13a,13b-octadecahydro-1H-cyclopenta[a]chrysen-9-yl)benzoic acid, TFA]", "EC50": "< 0.1"}, {"molecule": "C=C(C)[C@@H]1CC[C@]2(NCCNc3cccnc3)CC[C@]3(C)[C@H](CC[C@@H]4[C@@]5(C)CC=C(c6ccc(C(=O)O)cc6)C(C)(C)[C@@H]5CC[C@]43C)[C@@H]12", "note": "[Example 189, 4-((1R,3aS,5aR,5bR,7aR,11aS,11bR,13aR,13bR)-5a,5b,8,8,11a-pentamethyl-1-(prop-1-en-2-yl)-3a-(2-(pyridin-3-ylamino)ethylamino)-2,3,3a,4,5,5a,5b,6,7,7a,8,11,11a,11b,12,13,13a,13b-octadecahydro-1H-cyclopenta[a]chrysen-9-yl)benzoic acid]", "EC50": "< 0.1"}, {"molecule": "C=C(C)[C@@H]1CC[C@]2(NCCNc3ccncc3)CC[C@]3(C)[C@H](CC[C@@H]4[C@@]5(C)CC=C(c6ccc(C(=O)O)cc6)C(C)(C)[C@@H]5CC[C@]43C)[C@@H]12", "note": "[Example 190, 4-((1R,3aS,5aR,5bR,7aR,11aS,11bR,13aR,13bR)-5a,5b,8,8,11a-pentamethyl-1-(prop-1-en-2-yl)-3a-(2-(pyridin-4-ylamino)ethylamino)-2,3,3a,4,5,5a,5b,6,7,7a,8,11,11a,11b,12,13,13a,13b-octadecahydro-1H-cyclopenta[a]chrysen-9-yl)benzoic acid]", "EC50": "< 0.1"}, {"molecule": "C=C(C)[C@@H]1CC[C@]2(NCCNc3nccn3C)CC[C@]3(C)[C@H](CC[C@@H]4[C@@]5(C)CC=C(c6ccc(C(=O)O)cc6)C(C)(C)[C@@H]5CC[C@]43C)[C@@H]12", "note": "[Example 191, 4-((1R,3aS,5aR,5bR,7aR,11aS,11bR,13aR,13bR)-5a,5b,8,8,11a-pentamethyl-3a-(2-(1-methyl-1H-imidazol-2-ylamino)ethylamino)-1-(prop-1-en-2-yl)-2,3,3a,4,5,5a,5b,6,7,7a,8,11,11a,11b,12,13,13a,13b-octadecahydro-1H-cyclopenta[a]chrysen-9-yl)benzoic acid]", "EC50": "< 0.1"}, {"molecule": "C=C(C)[C@@H]1CC[C@]2(NCCNc3ccccc3)CC[C@]3(C)[C@H](CC[C@@H]4[C@@]5(C)CC=C(c6ccc(C(=O)O)cc6)C(C)(C)[C@@H]5CC[C@]43C)[C@@H]12", "note": "[Example 192, 4-((1R,3aS,5aR,5bR,7aR,11aS,11bR,13aR,13bR)-5a,5b,8,8,11a-pentamethyl-3a-(2-(phenylamino)ethylamino)-1-(prop-1-en-2-yl)-2,3,3a,4,5,5a,5b,6,7,7a,8,11,11a,11b,12,13,13a,13b-octadecahydro-1H-cyclopenta[a]chrysen-9-yl)benzoic acid]", "EC50": "< 0.1"}, {"molecule": "C=C(C)[C@@H]1CC[C@]2(NCCNc3ccc(C)nn3)CC[C@]3(C)[C@H](CC[C@@H]4[C@@]5(C)CC=C(c6ccc(C(=O)O)cc6)C(C)(C)[C@@H]5CC[C@]43C)[C@@H]12", "note": "[Example 194, 4-((1R,3aS,5aR,5bR,7aR,11aS,11bR,13aR,13bR)-5a,5b,8,8,11a-pentamethyl-3a-(2-(6-methylpyridazin-3-ylamino)ethylamino)-1-(prop-1-en-2-yl)-2,3,3a,4,5,5a,5b,6,7,7a,8,11,11a,11b,12,13,13a,13b-octadecahydro-1H-cyclopenta[a]chrysen-9-yl)benzoic acid]", "EC50": "< 0.1"}, {"molecule": "C=C(C)[C@@H]1CC[C@]2(NCCNC(C)=O)CC[C@]3(C)[C@H](CC[C@@H]4[C@@]5(C)CC=C(c6ccc(C(=O)O)cc6)C(C)(C)[C@@H]5CC[C@]43C)[C@@H]12", "note": "[Example 195, 4-((1R,3aS,5aR,5bR,7aR,11aS,11bR,13aR,13bR)-3a-(2-acetamidoethylamino)-5a,5b,8,8,11a-pentamethyl-1-(prop-1-en-2-yl)-2,3,3a,4,5,5a,5b,6,7,7a,8,11,11a,11b,12,13,13a,13b-octadecahydro-1H-cyclopenta[a]chrysen-9-yl)benzoic acid]", "EC50": "< 0.1"}, {"molecule": "C=C(C)[C@@H]1CC[C@]2(NCCNc3ccc(SC)cn3)CC[C@]3(C)[C@H](CC[C@@H]4[C@@]5(C)CC=C(c6ccc(C(=O)O)cc6)C(C)(C)[C@@H]5CC[C@]43C)[C@@H]12", "note": "[Example 196, 4-((1R,3aS,5aR,5bR,7aR,11aS,11bR,13aR,13bR)-5a,5b,8,8,11a-pentamethyl-3a-(2-(5-(methylthio)pyridin-2-ylamino)ethylamino)-1-(prop-1-en-2-yl)-2,3,3a,4,5,5a,5b,6,7,7a,8,11,11a,11b,12,13,13a,13b-octadecahydro-1H-cyclopenta[a]chrysen-9-yl)benzoic acid]", "EC50": "< 0.1"}, {"molecule": "C=C(C)[C@@H]1CC[C@]2(NCCNc3nccc(SC)n3)CC[C@]3(C)[C@H](CC[C@@H]4[C@@]5(C)CC=C(c6ccc(C(=O)O)cc6)C(C)(C)[C@@H]5CC[C@]43C)[C@@H]12", "note": "[Example 197, 4-((1R,3aS,5aR,5bR,7aR,11aS,11bR,13aR,13bR)-5a,5b,8,8,11a-pentamethyl-3a-(2-(4-(methylthio)pyrimidin-2-ylamino)ethylamino)-1-(prop-1-en-2-yl)-2,3,3a,4,5,5a,5b,6,7,7a,8,11,11a,11b,12,13,13a,13b-octadecahydro-1H-cyclopenta[a]chrysen-9-yl)benzoic acid]", "EC50": "< 0.1"}, {"molecule": "C=C(C)[C@@H]1CC[C@]2(NCCNc3cccc(SC)n3)CC[C@]3(C)[C@H](CC[C@@H]4[C@@]5(C)CC=C(c6ccc(C(=O)O)cc6)C(C)(C)[C@@H]5CC[C@]43C)[C@@H]12", "note": "[Example 198, 4-((1R,3aS,5aR,5bR,7aR,11aS,11bR,13aR,13bR)-5a,5b,8,8,11a-pentamethyl-3a-(2-(6-(methylthio)pyridin-2-ylamino)ethylamino)-1-(prop-1-en-2-yl)-2,3,3a,4,5,5a,5b,6,7,7a,8,11,11a,11b,12,13,13a,13b-octadecahydro-1H-cyclopenta[a]chrysen-9-yl)benzoic acid]", "EC50": "< 0.1"}, {"molecule": "C=C(C)[C@@H]1CC[C@]2(NCCNc3ncccn3)CC[C@]3(C)[C@H](CC[C@@H]4[C@@]5(C)CC=C(c6ccc(C(=O)O)cc6)C(C)(C)[C@@H]5CC[C@]43C)[C@@H]12", "note": "[Example 199, 4-((1R,3aS,5aR,5bR,7aR,11aS,11bR,13aR,13bR)-5a,5b,8,8,11a-pentamethyl-1-(prop-1-en-2-yl)-3a-(2-(pyrimidin-2-ylamino)ethylamino)-2,3,3a,4,5,5a,5b,6,7,7a,8,11,11a,11b,12,13,13a,13b-octadecahydro-1H-cyclopenta[a]chrysen-9-yl)benzoic acid]", "EC50": "< 0.1"}]}, {"tested_on": "recombinant NL4-3 virus (Renilla luciferase in nef, Gag P373S; NLRluc) in MT-2 cells", "assay": "whole plant or invertebrate", "type": "cell-based, HIV", "conditions": "Renilla, NL43, luciferase activity in cells infected for 4-5 days with NLRluc recombinants, serial dilutions of inhibitor; numeric values; read-out: EC50", "summary_of_the_method": "as §1", "units": {"EC50": "µM"}, "values": [{"molecule": "C=C(C)[C@@H]1CC[C@]2(N(CC(=O)CC)c3nc(CC)cs3)CC[C@]3(C)[C@H](CC[C@@H]4[C@@]5(C)CC=C(c6ccc(C(=O)O)cc6)C(C)(C)[C@@H]5CC[C@]43C)[C@@H]12", "note": "[Example 184A, 4-((1R,3aS,5aR,5bR,7aR,11aS,11bR,13aR,13bR)-3a-((4-ethylthiazol-2-yl)(2-oxobutyl)amino)-5a,5b,8,8,11a-pentamethyl-1-(prop-1-en-2-yl)-2,3,3a,4,5,5a,5b,6,7,7a,8,11,11a,11b,12,13,13a,13b-octadecahydro-1H-cyclopenta[a]chrysen-9-yl)benzoic acid]", "EC50": 0.39}, {"molecule": "C=C(C)[C@@H]1CC[C@]2(NCCNc3ccccn3)CC[C@]3(C)[C@H](CC[C@@H]4[C@@]5(C)CC=C(c6ccc(C(=O)O)cc6)C(C)(C)[C@@H]5CC[C@]43C)[C@@H]12", "note": "[Example 188, 4-((1R,3aS,5aR,5bR,7aR,11aS,11bR,13aR,13bR)-5a,5b,8,8,11a-pentamethyl-1-(prop-1-en-2-yl)-3a-(2-(pyridin-2-ylamino)ethylamino)-2,3,3a,4,5,5a,5b,6,7,7a,8,11,11a,11b,12,13,13a,13b-octadecahydro-1H-cyclopenta[a]chrysen-9-yl)benzoic acid]", "EC50": 0.001}, {"molecule": "C=C(C)[C@@H]1CC[C@]2(NCCNc3nccs3)CC[C@]3(C)[C@H](CC[C@@H]4[C@@]5(C)CC=C(c6ccc(C(=O)O)cc6)C(C)(C)[C@@H]5CC[C@]43C)[C@@H]12", "note": "[Example 193, 4-((1R,3aS,5aR,5bR,7aR,11aS,11bR,13aR,13bR)-5a,5b,8,8,11a-pentamethyl-1-(prop-1-en-2-yl)-3a-(2-(thiazol-2-ylamino)ethylamino)-2,3,3a,4,5,5a,5b,6,7,7a,8,11,11a,11b,12,13,13a,13b-octadecahydro-1H-cyclopenta[a]chrysen-9-yl)benzoic acid]", "EC50": 0.02}]}]}
